Assay results as given in US11369594B2, “Cytotoxic actin-targeting compounds” (priority 2017, dated 2022).
“Also recorded” adds a separate entry of the source.

Tests used:
[1] = test system: SKOV3 (ovarian) cells; experiment: IncuCyte PI uptake assay of cytotoxicity; format: cell-based; settings: 48 hours of treatment, compared to DMSO control
Experimental: The cytotoxicity of analogs was determined by using a PI uptake assay. HCC1954, SKBR3 or SKOV3 cells (2,000) were seeded in a 96-well plate. Treatments were prepared in 2% FBS containing media with 1 μM PI, and imaged using the IncuCyte Zoom Live Cell Analysis System equipped with a 10× objective. Phase contrast and fluorescent images were acquired every 2-3 hours for 48 hours. Several parameters are available upon analysis utilizing the IncuCyte Zoom Analysis tools including number of PI positive cells and cell confluence. See FIG. 8 for plots of SKOV3 cell analog cytotoxicity and HCC1954 cell analog cytotoxicity for specified treatments.
Cytotoxicity effects of Myc B and analogs in HER2 cancer cells was studied. Specifically, SKOV3 (ovarian) and HCC1954 (breast) cells were incubated with DMSO (1%) or analog (12.5-50 μM) in DMEM supplemented with 2% FBS and PI (1 μM) using an IncuCyte Zoom Live Cell Analysis System for 48 hours. As shown in FIGS. 10A-Q, graphs depict the number of PI positive for SKOV3 cells (left) and HCC1954 cells (right) over 48 hours of treatment with DMSO or indicated analog (12.5-50 μM).

[2] = test system: HER2 cancer cells SKOV3 (ovarian) and HCC1954 (breast); experiment: Growth suppression of HER2 cancer cells (cell confluence change, live cell imaging); format: cell-based; settings: analogs 25 μM, Lapatinib 25 μM as comparator
Experimental: Growth suppression of HER2 cancer cells by select Myc B analogs was studied to determine rate of growth of HER2 cancer cells (SKOV3 (ovarian) and HCC1954 (breast)) as measured using a live cell imaging system. Findings are shown in FIGS. 9A and 9B, SKOV3 Ovarian cancer and HCC1954 Breast cancer cells were incubated with DMSO (1%), Myc B (25 nM), or the indicated analogs (25 μM), or with HER2 inhibitor Lapatinib (25 μM) in DMEM supplemented with 2% FBS and PI (1 μM) using an IncuCyte Zoom Live Cell Analysis System for 48 hours. Graphs depict the percent change in confluence at 48 hours compared to time zero (significant differences from DMSO *p<0.05, **p<0.01, ***p<0.001).

[3] = test system: F-actin in SKOV3 cells expressing LifeAct-GFP; experiment: Live cell confocal imaging of LifeAct-GFP reporter (F-actin disruption); format: cell-based; settings: 0-2 hours
Experimental: To visualize effects of analogs on cellular F-actin dynamics, several cancer cell lines were transduced with a lentivirus expressing a green fluorescent protein (GFP) fusion with LifeAct, a 17 amino-acid protein containing the actin-binding domain of a yeast protein. To produce this lentivirus, 500,000 HEK293T cells were seeded on a 6-well plate coated with 0.01 mg/ml of poly-lysine solution. 24 hours later viral packing plasmids Pax2 (1 ug) and MD2G (0.5 ug) were mixed in serum free media with 1 ug of pLenti.PGK.LifeAct-GFP.W (Addgene Catalogue No. 51010), and 10 uL of Xtreme-Gene (Roche, Germany) were then added to the master mix. The mix was vortexed and incubated at room temperature for 15 minutes before being added in a drop-wise manner to HEK293T cells. After 24 hours, HCC1954, SKBR3 or SKOV3 cells were seeded in a 6-well plate and incubated at 37° C. for 24 hours. The virus-containing media from the HEK293T cells media was collected and filtered (0.45 μm). HCC1954, SKBR3 or SKOV3 cells were incubated with 0.5 mL virus-containing media, and incubated at 37° C. for 2-3 days. Efficiency of transduction was determined by visualizing GFP positive cells using fluorescence microscopy. […]
Disruption of filamentous actin (F-actin) in HER2 cancer cells was measured using live cell confocal imaging of LifeAct-GFP reporter. […]

[4] = test system: F-actin in SKOV3 cells; experiment: F-actin staining (TRITC-Phalloidin) fluorescence micrographs; format: cell-based; settings: 2 or 20 hours
Experimental: Referring to FIG. 12, representative fluorescence micrographs are shown of SKOV3 cells treated with DMSO (1%), Myc B (25 nM), or indicated analog (10 μM) for 2 or 20 hours prior to staining of F-actin (TRITC-Phalloidin). the effects of Myc B analog treatments over 20 hours are compared with DMSO and Myc B in HER2 cancer cells. […] As described in Example 37, disruption of filamentous actin (F-actin) in HER2 cancer cells was measured using live cell confocal imaging of LifeAct-GFP reporter. The LifeAct-GFP signal in DMSO control conditions indicates the localization of F-actin structures in SKOV3 cells. […] Compounds described herein can be used to treat such actin-related problems because of their efficacy in disrupting actin, as shown by studies described in the Examples and Figures herein.

[5] = test system: HER2+ cell migration and invasion (SKOV3 cells); experiment: Cell migration and invasion assays (IncuCyte scratch wound, spheroid reattachment); format: cell-based; settings: sub-lethal doses (low nM)
Experimental: Effects of analogs on cellular motility including invasion and migration were evaluated using the IncuCyte Live Cell System. 25,000 SKOV3 cells were plated on a 96-well ImageLock coated with 10 μg/ml of human fibronectin. Once the cells reached approximately 90% confluence a scratch/wound is induced using the IncuCyte Woundmaker (a 96-pin would making tool). The cells were then rinsed with sterile PBS then media, with or without treatment was added. To evaluate invasion 5% Matrigel was added. The plate was then inserted into the IncuCyte Zoom Live Cell Analysis System and imaged at 10× magnification every 2-3 hours following until wound closure or 48 hours.
The percentage of wound confluence, for migration, or would density, for invasion, was determined through the IncuCyte ZOOM Scratch Wound Analysis tool adjusted to cell line dependent processing definitions. See FIGS. 5 to 6 for images and graphical results.
A three-dimensional (3D) spheroid reattachment assay was performed to further evaluate analog effects on migration and invasion. A round bottom 96-well was coated with polyhydroxyehylmethacrylate (poly-hema) to create a non-adhesive conditions upon which cancer cells can form a 3D spheroid. […]
The percentage of migration/invasion was calculated using ImageJ (NIH) by measuring the area of migration or invasion and subtracting the intial size of the spheroid. […]

[6] = test system: HER2+ SKOV3 subcutaneous tumor xenograft; experiment: SKOV3 subcutaneous tumor xenograft study; format: in vivo, Rag2−/−:IL2Rγc−/− mice
Experimental: Referring to FIGS. 3A and 3B, a proof-of-principle study of the anticancer effects of MycB in a SKOV3 tumor xenograft model. […] Following the detection of palpable tumors, mice were randomized between vehicle control (DMSO), MycB (100 ng, intratumoral), TZ (50 μg, intraperitoneal), or both MycB and TZ (same doses/delivery) twice weekly until endpoint was reached (n=6/group; significant differences between treatment groups based on ANOVA are indicated by *P<0.05, **** P<0.0001).
The anti-tumor effects of MycB analogs are also expected to extend to other cancer types with selection of appropriate antibodies for these tumor types with novel ADC formulations.

[7] = test system: SKBR3, MDA-MB-453 and SKOV3 cells; experiment: Cell viability, Trypan blue exclusion assay; format: cell-based; settings: multiple cancer cell lines
Experimental: Referring to FIG. 1A-C, the cytotoxicity of MycB on HER2+ breast and ovarian cancer cells was measured. Specifically, data is provided regarding the percentage of viable cells following treatment with MycB at 0-200 nM concentrations for 48 hours using SKBR3, MDA-MB-453 and SKOV3 cells. Cell viability was determined using Trypan blue exclusion assay (both unstained and stained cells were counted on a hemocytometer; values are mean±SEM of triplicate experiments).

SMILES: CCCO[C@H](CC)C[C@H](OC)[C@@H](C)CC[C@@H](OC(=O)C(C)C)[C@H](C)[C@H](OC)[C@H](C)/C=C/N(C)C=O [4f]
- Cytotoxicity: number of PI positive cells (PI uptake) [1]: significant cytoxicity response
- Growth suppression: percent change in confluence at 48 hours compared to time zero [2]: potent analog was seen in 4f (2534), with comparable effects of the HER2 inhibitor Lapatinib
- F-actin structures (LifeAct-GFP signal) ([3]; analogs 10 μM): limited effects at early time points

SMILES: CCC(=O)O[C@H](CC)C[C@H](OC)[C@@H](C)CC[C@@H](OC(=O)C(C)C)[C@H](C)[C@H](OC)[C@H](C)/C=C/N(C)C=O [4g]
- Localization of endogenous F-actin (TRITC-Phalloidin) ([4]; analogs 10 μM): most highly disruptive of F-actin

SMILES: CCC(=O)O[C@H](CC)C[C@H](OC)[C@@H](C)CC[C@@H](OC(=O)[C@@H](C)OC)[C@H](C)[C@H](OC)[C@H](C)/C=C/N(C)C=O [4h]
- Localization of endogenous F-actin (TRITC-Phalloidin) ([4]; analogs 10 μM): most highly disruptive of F-actin

SMILES: COC[C@@H](OC)C(=O)O[C@H](CC[C@H](C)[C@@H](C[C@@H]1OC(=O)C[C@@H](O)C/C=C/C(=O)[C@H](C)[C@H](OC)c2coc(n2)-c2coc(n2)-c2coc(n2)/C=C/C[C@H](OC)[C@H]1C)OC)[C@H](C)[C@H](OC(C)=O)[C@H](C)/C=C/N(C)C=O [MycB, Mycalolide B]
- Cytotoxicity: number of PI positive cells (PI uptake) [1]: significant increase in PI uptake
- F-actin structures (LifeAct-GFP signal) ([3]; Myc B 25 nM): time-dependent collapse of F-actin into large aggregates near the cell periphery
- Localization of endogenous F-actin (TRITC-Phalloidin) ([4]; Myc B 25 nM): disruption of F-actin at the cell periphery and collapse into large aggregates in the cytoplasm of the cells
- Inhibition of cell motility and invasiveness [5]: significant inhibition of cell motility and invasiveness
- Growth of SKOV3 tumors (tumor volume and mass) ([6]; MycB 100 ng intratumoral in combination with TZ 50 μg intraperitoneal, twice weekly): reduced growth of SKOV3 tumors; also recorded: potential improvement when combined with TZ (Herceptin) on limiting tumor growth and metastasis
- Growth of SKOV3 tumors (tumor volume and mass) ([6]; MycB alone, 100 ng intratumoral twice weekly): reduced growth of SKOV3 tumors; also recorded: anti-tumor effects of MycB on tumor volume and mass were demonstrated
- Cytotoxicity in cancer cell lines [7]: cytotoxicity in multiple cancer cell lines
